According to ChEMBL document CHEMBL3525933 (Drug Metab Dispos, 2012):

Assays:
Plasma [1] = test: Stability in Wistar rat plasma measured for 24 hrs at room temperature by HPLC-DAD analysis; type: ADME, cell-free
[2] = Drug excretion in conventional Wistar rat feces assessed as norathyriol metabolite level at 400 mg/kg, po administered as single dose by HPLC-DAD analysis; type: ADME, organism-based; set-up: dose 400 mg/kg, route oral; settings: in vivo
[3] = Tmax in pseudo-germ free Wistar rat at 400 mg/kg, po administered as single dose by HPLC-DAD analysis; type: ADME, organism-based; set-up: dose 400 mg/kg, route oral; settings: in vivo
Plasma [4] = test: Drug recovery in Wistar rat plasma at 500 ng/ml by HPLC-DAD analysis; type: ADME, cell-free
[5] = Tmax in streptozotocin-induced diabetic Wistar rat at 400 mg/kg, po administered as single dose by HPLC-DAD analysis; type: ADME, organism-based; set-up: dose 400 mg/kg, route oral; settings: in vivo
[6] = Drug excretion in conventional Wistar rat urine assessed as 1,7-dihydroxyxanthone metabolite level at 400 mg/kg, po administered as single dose by HPLC-DAD analysis; type: ADME, organism-based; set-up: dose 400 mg/kg, route oral; settings: in vivo
[7] = Drug excretion in streptozotocin-induced diabetic Wistar rat feces assessed as norathyriol metabolite level at 400 mg/kg, po administered as single dose by HPLC-DAD analysis; type: ADME, organism-based; set-up: dose 400 mg/kg, route oral; settings: in vivo
Plasma [8] = test: Drug metabolism in streptozotocin-induced diabetic Wistar rat plasma assessed as norathyriol metabolite formation at 400 mg/kg, po administered as single dose by HPLC-DAD analysis; type: ADME, organism-based; set-up: dose 400 mg/kg, route oral; settings: in vivo
[9] = Drug excretion in pseudo-germ free Wistar rat urine assessed as unchanged drug level at 400 mg/kg, po administered as single dose by HPLC-DAD analysis; type: ADME, organism-based; set-up: dose 400 mg/kg, route oral; settings: in vivo
[10] = Apparent oral clearance in pseudo-germ free Wistar rat at 400 mg/kg, po administered as single dose by HPLC-DAD analysis; type: ADME, organism-based; set-up: dose 400 mg/kg, route oral; settings: in vivo
[11] = Drug excretion in conventional Wistar rat feces assessed as 1,7-dihydroxyxanthone metabolite level at 400 mg/kg, po administered as single dose by HPLC-DAD analysis; type: ADME, organism-based; set-up: dose 400 mg/kg, route oral; settings: in vivo
Plasma [12] = test: Drug recovery in Wistar rat plasma at 2000 ng/ml by HPLC-DAD analysis; type: ADME, cell-free
[13] = Elimination half life in pseudo-germ free Wistar rat at 400 mg/kg, po administered as single dose by HPLC-DAD analysis; type: ADME, organism-based; set-up: dose 400 mg/kg, route oral; settings: in vivo, read-out: beta t1/2 (converted)
[14] = Drug excretion in streptozotocin-induced diabetic Wistar rat feces assessed as unchanged drug level at 400 mg/kg, po administered as single dose by HPLC-DAD analysis; type: ADME, organism-based; set-up: dose 400 mg/kg, route oral; settings: in vivo
[15] = Apparent oral clearance in conventional Wistar rat at 400 mg/kg, po administered as single dose by HPLC-DAD analysis; type: ADME, organism-based; set-up: dose 400 mg/kg, route oral; settings: in vivo
[16] = Drug excretion in streptozotocin-induced diabetic Wistar rat urine assessed as 1,7-dihydroxyxanthone metabolite level at 400 mg/kg, po administered as single dose by HPLC-DAD analysis; type: ADME, organism-based; set-up: dose 400 mg/kg, route oral; settings: in vivo
Plasma [17] = test: Drug metabolism in streptozotocin-induced diabetic Wistar rat plasma assessed as 1,7-dihydroxyxanthone metabolite formation at 400 mg/kg, po administered as single dose by HPLC-DAD analysis; type: ADME, organism-based; set-up: dose 400 mg/kg, route oral; settings: in vivo
[18] = Cmax in streptozotocin-induced diabetic Wistar rat at 400 mg/kg, po administered as single dose by HPLC-DAD analysis; type: ADME, organism-based; set-up: dose 400 mg/kg, route oral; settings: in vivo
[19] = MRT(0 to infinity) in streptozotocin-induced diabetic Wistar rat at 400 mg/kg, po administered as single dose by HPLC-DAD analysis; type: ADME, organism-based; set-up: dose 400 mg/kg, route oral; settings: in vivo
[20] = AUC(0 to t) in streptozotocin-induced diabetic Wistar rat at 400 mg/kg, po administered as single dose by HPLC-DAD analysis; type: ADME, organism-based; set-up: dose 400 mg/kg, route oral; settings: plasma
[21] = Drug excretion in conventional Wistar rat feces assessed as unchanged drug level at 400 mg/kg, po administered as single dose by HPLC-DAD analysis; type: ADME, organism-based; set-up: dose 400 mg/kg, route oral; settings: in vivo
Plasma [22] = test: Drug recovery in Wistar rat plasma at 100 ng/ml by HPLC-DAD analysis; type: ADME, cell-free
[23] = Drug excretion in streptozotocin-induced diabetic Wistar rat feces assessed as 1,7-dihydroxyxanthone metabolite level at 400 mg/kg, po administered as single dose by HPLC-DAD analysis; type: ADME, organism-based; set-up: dose 400 mg/kg, route oral; settings: in vivo
[24] = Drug excretion in streptozotocin-induced diabetic Wistar rat urine assessed as unchanged drug level at 400 mg/kg, po administered as single dose by HPLC-DAD analysis; type: ADME, organism-based; set-up: dose 400 mg/kg, route oral; settings: in vivo
[25] = Drug excretion in pseudo-germ free Wistar rat feces assessed as norathyriol metabolite level at 400 mg/kg, po administered as single dose by HPLC-DAD analysis; type: ADME, organism-based; set-up: dose 400 mg/kg, route oral; settings: in vivo
[26] = Drug excretion in streptozotocin-induced diabetic Wistar rat urine assessed as norathyriol metabolite level at 400 mg/kg, po administered as single dose by HPLC-DAD analysis; type: ADME, organism-based; set-up: dose 400 mg/kg, route oral; settings: in vivo
[27] = MRT(0 to t) in streptozotocin-induced diabetic Wistar rat at 400 mg/kg, po administered as single dose by HPLC-DAD analysis; type: ADME, organism-based; set-up: dose 400 mg/kg, route oral; settings: in vivo
[28] = AUC(0 to t) in conventional Wistar rat at 400 mg/kg, po administered as single dose by HPLC-DAD analysis; type: ADME, organism-based; set-up: dose 400 mg/kg, route oral; settings: plasma
[29] = Drug excretion in pseudo-germ free Wistar rat feces assessed as 1,7-dihydroxyxanthone metabolite level at 400 mg/kg, po administered as single dose by HPLC-DAD analysis; type: ADME, organism-based; set-up: dose 400 mg/kg, route oral; settings: in vivo
[30] = Elimination half life in conventional Wistar rat at 400 mg/kg, po administered as single dose by HPLC-DAD analysis; type: ADME, organism-based; set-up: dose 400 mg/kg, route oral; settings: in vivo, read-out: beta t1/2 (converted)

With `O=c1c2cc(O)c(O)cc2oc2cc(O)c([C@@H]3O[C@H](CO)[C@@H](O)[C@H](O)[C@H]3O)c(O)c12` [MANGIFERIN] as the compound, how does the Stability (Plasma [1]) read?
The Stability was “Stable”.

What about the Drug excretion [2] of the same compound?
The Drug excretion was “metabolite_detected”.

What about the Tmax [3] of the same compound?
The Tmax was 2.89 h.

And the Drug recovery (Plasma [4])?
The Drug recovery was 75.5%.

What about the Tmax [5] of the same compound?
The Tmax was 2.25 h.

What about the Drug excretion [6] of the same compound?
The Drug excretion was “metabolite_not_detected”.

And the Drug excretion [7]?
The Drug excretion was “metabolite_detected”.

What about the Drug metabolism (Plasma [8]) of the same compound?
Its Drug metabolism is “metabolite_not_detected”.

And the Drug excretion [9]?
The Drug excretion was “metabolite_detected”.

What about the CL/F [10] of the same compound?
The CL/F was 1690 mL/min/kg.

What about the Drug excretion [11] of the same compound?
The Drug excretion was “metabolite_not_detected”.

What about the Drug recovery (Plasma [12]) of the same compound?
The Drug recovery was 75.8%.

What about the half-life [13] of the same compound?
The half-life was 2.59 h.

What about the Drug excretion [14] of the same compound?
Its Drug excretion is “metabolite_detected”.

And the CL/F [15]?
Its CL/F is 2030 mL/min/kg.

And the Drug excretion [16]?
Its Drug excretion is “metabolite_detected”.

What about the Drug metabolism (Plasma [17]) of the same compound?
Its Drug metabolism is “metabolite_not_detected”.

What about the Cmax [18] of the same compound?
Its Cmax is 2000 ng/mL.

What about the MRT inf [19] of the same compound?
Its MRT inf is 5.45 h.

And the AUC(0-t) [20]?
Its AUC(0-t) is 8930 ng·h/mL.

And the Drug excretion [21]?
Its Drug excretion is “metabolite_detected”.

And the Drug recovery (Plasma [22])?
The Drug recovery was 78.4%.

What about the Drug excretion [23] of the same compound?
The Drug excretion was “metabolite_not_detected”.

What about the Drug excretion [24] of the same compound?
Its Drug excretion is “metabolite_detected”.

And the Drug excretion [25]?
The Drug excretion was “metabolite_not_detected”.

And the Drug excretion [26]?
Its Drug excretion is “metabolite_detected”.

And the MRT last [27]?
The MRT last was 5.4 h.

What about the AUC(0-t) [28] of the same compound?
The AUC(0-t) was 3800 ng·h/mL.

What about the Drug excretion [29] of the same compound?
The Drug excretion was “metabolite_not_detected”.

What about the half-life [30] of the same compound?
Its half-life is 2.47 h.
